The text below walks through data of PubChem BioAssay (NCI).

Values joined by “and” are separate entries in the source; they are usually repeats but may differ in a detail not shown here. Identical values can stand only once.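 Results reflect a 48-hour exposure of cells in 96-well plates to compound at five concentrations. GI50 = concentration required for 50% inhibition of growth. The concentration for full growth arrest is given as TGI.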

Among the test systems are PC-3 prostate; T-47D breast; IGROV1 ovarian; MCF7 breast; HOP-92 NSCLC; BT-549 breast; SNB-78 CNS; LXFL 529 NSCLC; DMS 273 small cell lung; DMS 114 small cell lung.
Experiment in all cases: NCI anticancer screen, dose series, 48 h

Turning to `N#Cc1c2ccccc2c2nnc3cc(C(F)(F)F)ccc3n12`, the GI50 was 48.1 µM with PC-3 prostate; over 100 µM in the assay on T-47D breast; 46.9 µM in the assay on IGROV1 ovarian; 10.7 µM in the assay with MCF7 breast; 51.5 µM with HOP-92 NSCLC; 57.2 µM in the assay with BT-549 breast. In addition, the TGI with PC-3 prostate was over 100 µM; with T-47D breast, over 100 µM; with IGROV1 ovarian, over 100 µM; with MCF7 breast, 80.9 µM; in the assay with HOP-92 NSCLC, over 100 µM; in the assay on BT-549 breast, over 100 µM.
For the compound `COc1ccc(C(=O)c2cc(OC)c(OC)c(OC)c2)cc1/C=C/C(=O)c1ccc(O)cc1`, the GI50 is 1.69 µM in the assay on PC-3 prostate; 19 µM with T-47D breast; 9.94 µM with IGROV1 ovarian; 3.16 µM in the assay with MCF7 breast; 1.21 µM with HOP-92 NSCLC; 2.02 µM in the assay with BT-549 breast. Also, the TGI in the assay with PC-3 prostate is 4.71 µM; with T-47D breast, over 100 µM; in the assay on IGROV1 ovarian, 34.8 µM; in the assay with MCF7 breast it was 15.9 µM; with HOP-92 NSCLC it was 3.31 µM; in the assay on BT-549 breast, 5.32 µM.
In the case of `OCc1ccc(N(Cc2ccc(F)cc2)C2CCC2)cc1Cl`, the GI50 in the assay on PC-3 prostate is 11.9 µM; in the assay on T-47D breast, 0.141 µM; in the assay on IGROV1 ovarian, 0.0698 µM; with MCF7 breast it was 0.178 µM; with HOP-92 NSCLC, 0.3 µM; in the assay with BT-549 breast, 17.7 µM. Besides, the TGI is 24.8 µM with PC-3 prostate; 0.815 µM with T-47D breast; 0.339 µM with IGROV1 ovarian; 10.9 µM in the assay with MCF7 breast; 6.69 µM in the assay with HOP-92 NSCLC; 32.8 µM with BT-549 breast.
As to `O=C(O)C(Cc1ccccc1-c1ccccc1)C(=O)O`, the TGI in the assay with PC-3 prostate, in the assay with T-47D breast, with IGROV1 ovarian, in the assay on MCF7 breast, in the assay on HOP-92 NSCLC and in the assay with BT-549 breast was over 100 µM throughout.
On to `O=C(Nc1cccc(NS(=O)(=O)c2ccc(F)cc2)c1)c1ccc(-c2ccccc2)cc1`, for which the GI50 in the assay on PC-3 prostate is 2.81 µM; with T-47D breast it was 2.28 µM; with IGROV1 ovarian, 4.38 µM; with MCF7 breast, 2.71 µM; in the assay on HOP-92 NSCLC it was 1.93 µM; in the assay with BT-549 breast it was 2.99 µM. Moreover, the TGI in the assay on PC-3 prostate was 32.6 µM; in the assay on T-47D breast, 7.88 µM; in the assay with IGROV1 ovarian, 64.9 µM; with MCF7 breast, 11.2 µM; in the assay with HOP-92 NSCLC, 8.22 µM; in the assay on BT-549 breast, 8.27 µM.
For `Cc1ccc2c(/C=C/C(=O)c3cc(CN4CCOCC4)c(O)c4nc(C)ccc34)cc(CN3CCOCC3)c(O)c2n1`, the GI50 was 0.577 µM in the assay with PC-3 prostate; 0.779 µM in the assay with T-47D breast; 0.622 µM with IGROV1 ovarian; 0.356 µM with MCF7 breast; 1.11 µM in the assay on HOP-92 NSCLC; 1.22 µM in the assay on BT-549 breast. The TGI is 19.1 µM in the assay with PC-3 prostate; 14 µM in the assay on T-47D breast; 3.6 µM in the assay on IGROV1 ovarian; 2.74 µM with MCF7 breast; 9.78 µM with HOP-92 NSCLC; 4.7 µM in the assay with BT-549 breast.
Turning to `N.N.NCCCCN.O=C([O-])CC(=O)[O-].O=C([O-])CC(=O)[O-].[Pt+4].[Pt+4]`, the GI50 in the assay on SNB-78 CNS was over 100 µM; in the assay with LXFL 529 NSCLC, over 100 µM; in the assay on IGROV1 ovarian, over 100 µM; in the assay with DMS 273 small cell lung, 89.2 µM; in the assay with HOP-92 NSCLC, over 100 µM. In addition, the TGI with SNB-78 CNS, in the assay with LXFL 529 NSCLC, with IGROV1 ovarian, with DMS 273 small cell lung and in the assay with HOP-92 NSCLC was over 100 µM in each case.
Take `Cc1cc(S(=O)(=O)Nc2nnc(-c3ccco3)c(-c3ccco3)n2)c(SCc2ccccc2)cc1Cl`: the GI50 was 28 µM with PC-3 prostate; 25.2 µM with T-47D breast; 32.4 µM in the assay with IGROV1 ovarian; 26.7 µM with MCF7 breast; 21.5 µM in the assay on HOP-92 NSCLC; 25.3 µM with BT-549 breast. Also, the TGI in the assay on PC-3 prostate is 57 µM; in the assay on T-47D breast it was 48.6 µM; in the assay with IGROV1 ovarian, over 100 µM; with MCF7 breast, 61.9 µM; in the assay with HOP-92 NSCLC it was 45.4 µM; with BT-549 breast, 50.2 µM.
In the case of `CCNCCNc1cc(-c2ccc(Cl)cc2)c(C#N)c2nc3ccccc3n12`, the GI50 with PC-3 prostate is 1.86 µM; with T-47D breast, 1.74 µM; with IGROV1 ovarian, 1.68 µM; in the assay with MCF7 breast, 1.37 µM; in the assay on HOP-92 NSCLC it was 1.7 µM; with BT-549 breast, 1.75 µM. Further, the TGI with PC-3 prostate is 3.39 µM; in the assay with T-47D breast, 3.86 µM; in the assay on IGROV1 ovarian, 3.37 µM; with MCF7 breast, 3.05 µM; with HOP-92 NSCLC it was 3.2 µM; in the assay on BT-549 breast, 3.34 µM.
On to `CC1/C=C/C=C/CC/C=C/C=C/C=C/C=C/C(OC2OC(C)C(O)C(N)C2O)CC2OC(CC(O)C(O)CCC(O)CC(O)CC(O)CC(=O)OC(C)C(C)C1O)CC(O)C2C(=O)O` (stereo not given), for which the GI50 is 31.2 µg/mL in the assay with PC-3 prostate; 59.8 µg/mL in the assay on T-47D breast; 23.4 µg/mL with IGROV1 ovarian; 128 µg/mL in the assay on MCF7 breast; 42.5 µg/mL with HOP-92 NSCLC; 38.8 µg/mL with BT-549 breast. In addition, the TGI with PC-3 prostate is 36.4 µM and 75.7 µg/mL; in the assay with T-47D breast it was > 100 µM and 150 µg/mL; in the assay with IGROV1 ovarian it was 32.2 µM and 52.1 µg/mL; in the assay with MCF7 breast, 36.4 µM and 150 µg/mL; in the assay with HOP-92 NSCLC, > 100 µM and 150 µg/mL; with BT-549 breast, 34.6 µM and 116 µg/mL.
In the case of `O=c1oc2ccccc2cc1-c1ccc([N+](=O)[O-])cc1`, the TGI with PC-3 prostate, in the assay on T-47D breast, in the assay on IGROV1 ovarian, in the assay with MCF7 breast, in the assay on HOP-92 NSCLC and in the assay on BT-549 breast was over 100 µM throughout.
Take `C=C1C(=O)OC2C1C(OC(=O)/C(C)=C/C)CC(O)(CCl)C1C(OC(C)=O)C=C(C)C21O` (stereo not given): the TGI turned out to be 30.8 µM with PC-3 prostate; 42.6 µM in the assay on T-47D breast; 30 µM in the assay on IGROV1 ovarian; 19.8 µM with MCF7 breast; 27.9 µM with HOP-92 NSCLC; 22.8 µM with BT-549 breast.
As to `COc1c2c(c(OC)c3c(=O)cc(C/C(=N/NC(=O)C[n+]4ccccc4)C(=O)Nc4cc(C)ccc4C)oc13)OCO2`, the TGI in the assay on SNB-78 CNS, in the assay with LXFL 529 NSCLC, with IGROV1 ovarian, in the assay on DMS 273 small cell lung, in the assay on DMS 114 small cell lung and in the assay with HOP-92 NSCLC was over 100 µM in each case.
